In US20150216867A1, “COMPOUNDS FOR USE IN GASTRIC COMPLICATION” (NOVARTIS AG, priority 2012, published 2015):
Structures can show the parent of a compound that is named as a salt.

Experiments:
[1] = tested on: cultured primary DRG cells; assay: Dorsal root ganglia stimulation with acid: low pH (6.1) induced CGRP release; type: cell-based; details: read-out: IC50, block of increased CGRP release
Text: c) Dorsal Root Ganglia Stimulation with Acid—Blockade of the Effect with GPR4 Antagonist Low pH (6.1) induces a significant Calcitonin Gene-Related Peptide (CGPR) release in cultured primary DRG cells.

human GPR4 [2] = target: T1, human GPR4 (Homo sapiens, UniProt P46093); assay: Human GPR4 binding assay ([3H]4(example 39) radioligand, membranes of 300.19 cells); set-up: c-myc (N); expressed in transfected cells
Protocol: (§1) Cells were grown in T175 flasks to a density of about 1×10^6 cells/mL in growth medium. The cells were harvested by centrifugation (3000 rpm for 30 minutes at 4° C.) and the pellet resuspended in ice cold buffer A (20 mM HEPES pH 7.8, 10 mM EDTA, 100 mM NaCl, 1 tab/40 mL protease inhibitor complete). […] The homogenate was centrifuged at 18000 rpm for 50 min at 4° C. and the membrane protein pellet resuspended in cold buffer A using the Polytron (2×20 seconds). The protein concentration is determined using the Bio Rad Protein Assay and human IgG as standard. The volume of the membrane protein suspension is adjusted to a final concentration of about 2 mg protein/mL. The suspension is then once again homogenized (Polytron) on ice at 25000 rpm for 20 seconds before being aliquoted and stored at −80° C.
(§2) Radio Ligand Binding Assay: Serial dilutions of compounds (stock in 10 mM DMSO) are prepared by first diluting the compounds in DMSO followed by a 1:50 dilution into assay buffer (10 mM HEPES, pH 8.0, 100 mM NaCl, 5 mM MgCl2, 1 mM CaCl2, 0.5% fatty acid-free BSA, 0.05% Tween-20). […] The desired amount of membranes (20 μg/well) is diluted with assay buffer. […] 100 μL of the membrane-suspension is added and the plate stirred for 60 minutes. […] Finally the plate is counted for 2 min/well in a TopCount NXT instrument (Packard Instruments). The data are analyzed using the GraphPad Prism™ software.

human GPR4 [3] = target: T1, human GPR4; assay: Cell-based assay for human GPR4 activity: pH-induced cAMP formation (HTRF) in HeLa cells; set-up: expressed in transfected cells; details: HeLa cells stably expressing human GPR4, pH-induced cAMP formation
Protocol: HeLa cells stably expressing human GPR4 were established by transfecting the cells with a construct containing the human GPR4 coding sequence. The cells were grown in Dulbecco's Modified Eagle Medium (DMEM)/HAM's tissue culture medium F12 (HAM's F12) supplemented with 10% fetal calf serum (FCS), 100 u/ml penicillin, 100 μg/ml streptomycin and 400 μg/ml G418 and 10 mM Hepes pH 8.0. pH-induced formation of cAMP was determined using the homogeneous time resolved fluorescence (HTRF) technology as provided by CisBio Inc. The cells were seeded in 384-well plates and cultured for 24 hours at 37° C., 5% CO2 before performing the assay. Medium was removed and 10 μl buffer A (Hepes buffered saline (HBS), 10 mM Hepes, pH 8, 2 mM 3-Isobutyl-1-methylxanthin (IBMX)) was added. For compound testing, buffer A with 2× concentrated compounds was used. Cells were incubated for 15 min at room temperature. 10 μl buffer B (HBS, 30 mM Hepes, specific pH) was added to reach the appropriate final pH for stimulation (see below) and incubation was continued for 15 min at room temperature.
HBS: 130 mM NaCl, 0.9 mM NaH2PO4, 5.4 mM KCl, 0.8 mM MgSO4, CaCl2 1.8 mM, 25 mM glucose, 10-30 mM Hepes. Adjustment of HBS buffers:
Compounds were diluted from fresh stock solutions at 10 mM in DMSO to 2 mM and then used for serial dilutions in DMSO.

human GPR4 [4] = target: T1, human GPR4; assay: Human GPR4 binding assay with additional human serum albumin (4% HSA); set-up: c-myc (N); expressed in transfected cells; details: binding assay with additional 4% human serum albumin
Protocol: as §1
as §2, with “software. […]” for “software.”

[5] = tested on: neutrophil recruitment into the BAL fluid; assay: Neutrophil infiltration into mouse BAL fluid, cigarette smoke exposure model; type: in vivo; details: WT mice, cigarette smoke 2 weeks, 90 mg/kg po
Protocol: e) Effect of GPR4 Antagonist on Neurophil Infiltration into Mouse BAL Fluid
The role of GPR4 on neutrophil recruitment was determined in the cigarette smoke exposure model. GPR4 WT (wild type) and KO (knockout) mice, and WT treated with the compounds of example No 41 and example No 40 (90 mg/kg po) were exposed to five cigarettes for 2 weeks. The mice were sacrificed 24 hours following last smoke exposure and bronchoalveolar lavage (BAL) was performed.
The following table summarizes the results obtained by the GPR4-mediated inhibition of neutrophil recruitment into the BAL fluid: […]

T1 sequence (P46093 whole entry): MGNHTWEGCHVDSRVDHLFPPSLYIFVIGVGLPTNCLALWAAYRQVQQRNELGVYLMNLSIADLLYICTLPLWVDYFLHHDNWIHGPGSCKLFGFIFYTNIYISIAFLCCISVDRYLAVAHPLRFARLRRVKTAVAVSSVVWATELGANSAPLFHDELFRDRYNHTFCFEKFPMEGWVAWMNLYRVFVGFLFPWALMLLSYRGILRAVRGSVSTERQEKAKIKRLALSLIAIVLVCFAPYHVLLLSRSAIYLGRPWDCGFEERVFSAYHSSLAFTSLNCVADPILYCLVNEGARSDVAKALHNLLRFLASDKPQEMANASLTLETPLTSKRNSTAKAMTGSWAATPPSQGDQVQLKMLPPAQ

| SMILES | IC50 [1] [nM] | recruitment of neutrophils [5] | also measured |
| --- | --- | --- | --- |
| CCc1nn2c(C)cc(C)nc2c1Cc1ccc(/C=C/CN2CCN(C[C@@H](O)CO)CC2)cc1 [Example 17, (R)-3-(4-{(E)-3-[4-(2-Ethyl-5,7-dimethyl-pyrazolo[1,5-a]pyrimidin-3-ylmethyl)-phenyl]-allyl}-piperazin-1-yl)-propane-1,2-diol dihydrochloride] | 120 | – | – |
| CCc1nn2c(C)cc(C)nc2c1Cc1ccc(/C=C/C(=O)N2CCNCC2)cc1 [Example 18, (E)-3-[4-(2-Ethyl-5,7-dimethyl-pyrazolo[1,5-a]pyrimidin-3-ylmethyl)-phenyl]-1-piperazin-1-yl-propenone hydrochloride] | – | – | IC50 (human GPR4 [2]): 81 nM; IC50 (human GPR4 [3]): 43 nM; IC50 (human GPR4 [4]): 67 nM |
| CCc1nn2c(C)cc(C)nc2c1Cc1ccc(-c2nnc(C3CCNCC3)o2)cc1 [Example 35, 2-Ethyl-5,7-dimethyl-3-[4-(5-piperidin-4-yl-[1,3,4]oxadiazol-2-yl)-benzyl]-pyrazolo[1,5-a]pyrimidine] | 530 | – | – |
| CCc1nc2c(C)cc(C)nc2n1Cc1ccc(/C=C/CN2CCN(C(C)C)CC2)cc1 [Example 40, 2-Ethyl-3-{4-[(E)-3-(4-isopropyl-piperazin-1-yl)-propenyl]-benzyl}-5,7-dimethyl-3H-imidazo[4,5-b]pyridine] | – | significantly reduced | – |
| CCc1nc2c(C)cc(C)nc2n1Cc1ccc(/C=C/CN2CCC(N3CCCCC3)CC2)cc1 [Example 41, 1′-{(E)-3-[4-(2-Ethyl-5,7-dimethyl-imidazo[4,5-b]pyridin-3-ylmethyl)-phenyl]-allyl}-[1,4′]bipiperidinyl dihydrochloride] | – | significantly reduced | – |
